Assay results taken from PubChem BioAssay AID1117334 (Cheminformatics & Chemogenomics Research Group (CCRG), …, 2015).
Calls of active or inactive are those of the source. No rule for the calls is given here.

Each compound was assayed on Colo320 viability, CellTiter-Glo luminescence (assay: cytotoxicity toward Colo320 cells – cell-based, CellTiter-Glo luminescence, IC50, dose response (AID 1117334)).

For CCCCCCCCCCCCCC[N+](C)(C)C, which IC50 is on record?
The IC50 was 2.52 µM.

With Cn1cnc([N+](=O)[O-])c1Sc1ncnc2nc[nH]c12 as the compound, how does the IC50 read?
Its IC50 is 10.3 µM (inactive).

Cc1ccc([N+](=O)[O-])[c]2c1[O][Hg]2 was tested. Which IC50 did it give?
The IC50 was 0.935 µM.

For CC(C)n1c(/C=C/[C@@H](O)C[C@@H](O)CC(=O)O)c(-c2ccc(F)cc2)c2ccccc21, which IC50 is on record?
Its IC50 is 13 µM (inactive).

With O=C1[O][Bi][O]c2ccccc21 as the compound, how does the IC50 read?
Its IC50 is > 20 µM (inactive).

How did the IC50 turn out when CC(=O)[O][Hg][c]1ccccc1 was run?
The IC50 was 1.3 µM.

How did the IC50 turn out when O=C(O)C1(C(=O)O)CCC1.[NH2-].[NH2-].[Pt+2] was run?
Its IC50 is > 20 µM (inactive).

For OCCN1CCN(CC/C=C2/c3ccccc3Sc3ccc(C(F)(F)F)cc32)CC1, which IC50 is on record?
The IC50 was 2.31 µM.

For CO[C@@]12[C@H](COC(N)=O)C3=C(C(=O)C(C)=C(N)C3=O)N1C[C@@H]1N[C@@H]12, which IC50 is on record?
The IC50 was 12.6 µM (inactive).

Which IC50 does the source give for O=Cc1ccc(O)c(O)c1O here?
Its IC50 is 9.08 µM (inactive).

How did the IC50 turn out when CCN(CC)CCCC(C)Nc1c2ccc(Cl)cc2nc2ccc(OC)cc12 (stereo unspecified) was run?
Its IC50 is 8.44 µM (inactive).
